In the test the target is T1, h P2X3 (Homo sapiens, UniProt P56373).
T1 sequence (P56373 1-397): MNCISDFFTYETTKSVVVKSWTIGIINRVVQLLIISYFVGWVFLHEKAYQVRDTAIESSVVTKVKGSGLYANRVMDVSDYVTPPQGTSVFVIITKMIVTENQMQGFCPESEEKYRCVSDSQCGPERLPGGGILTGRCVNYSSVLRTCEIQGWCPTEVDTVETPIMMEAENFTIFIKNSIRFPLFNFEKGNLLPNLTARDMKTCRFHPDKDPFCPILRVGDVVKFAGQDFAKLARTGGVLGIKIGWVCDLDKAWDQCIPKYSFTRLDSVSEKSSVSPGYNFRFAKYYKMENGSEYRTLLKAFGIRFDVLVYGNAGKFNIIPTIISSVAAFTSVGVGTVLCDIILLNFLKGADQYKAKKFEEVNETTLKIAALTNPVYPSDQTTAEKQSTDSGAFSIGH
Put plainly: In vitro electrophysiology assay for P2X3 (automated whole-cell patch clamp, α,β-MeATP agonist). Type of test: cell-based. The following applies: Table 2; 800 nM α,β-MeATP, peak current; read-out: h P2X3 (pIC50 range of activity) (converted). Here is the method:
In Vitro Electrophysiology Assay for P2X3
Cells expressing P2X3 receptors were grown according to standard practice and maintained at 37° C. in a 5% humidified CO2 atmosphere. The cells were seeded into T175 flask 2 days prior to the day of the assay and dissociated from the flasks using TrypLE when grown to confluence of 80-90%. The dissociated cells were resuspended in serum free media at a cell density of 3×10^6 cells/ml and loaded onto the Sophion Qube automated patch-clamp system. The extracellular assay buffer contained 145 mM NaCl, 4 mM KCl, 2 mM CaCl2, 1 mM MgCl2, 10 mM HEPES, and 10 mM glucose at pH 7.4. The intracellular assay solution contained 140 mM CsF, 10 mM NaCl, 10 mM EGTA, 10 mM HEPES at pH 7.2. Agonist stock solutions were prepared in H2O and diluted in bath solution prior to use. All antagonists were prepared as 10 mM stock solutions in DMSO and diluted in bath solution prior to use. All experiments were performed under the whole-cell patch clamp configuration at room temperature with 384 individual cells being voltage clamped at −60 mV simultaneously on the Sophion Qube instrument. Two baseline responses were established with the application of α,β-MeATP (800 nM), with the subsequent agonist applications being washed out using extracellular assay buffer containing 0.5 U/ml apyrase. Following the second agonist application, antagonist was incubated in the absence of α,β-MeATP for 10 minutes. After antagonist preincubation, 800 nM α,β-MeATP and antagonist were co-administered to determine the inhibitory effect of the antagonist. One concentration of an antagonist was assessed against a single cell, with different concentrations of the antagonist applied to other cells on the 384 recording substrate. The control P2X3 current amplitude was taken from the peak current amplitude from the second agonist response prior to preincubation with antagonist. The peak P2X3 current amplitude in the presence of antagonist was used to calculate the inhibitory effect at each concentration of the antagonist according to the following equation:
Percentage inhibition of P2X3=(P2X3 control peak amplitude−P2X3 antagonist peak amplitude)/P2X3 control peak amplitude)*100
Concentration-response curves were constructed from ten different concentrations with each concentration of antagonist tested on at least two individual cells. The concentration of the antagonist to inhibit P2X3 current by 50% (IC50) was determined by fitting the data with the following equation:
Y=a+[(b−a)/(1+10^((log c−x)d)]
Where ‘a’ is minimum response, ‘b’ is maximum response, ‘c’ is IC50 and ‘d’ is Hill slope.
(In general: In patch-clamp work, channel activity is measured electrically.)

For the compound `Cc1nnc(C(C)Nc2ncnc3c(S(=O)(=O)N4CCOCC4)cc(-c4ccc(F)cc4)cc23)s1` (racemic) [Example 12, (Rac)-6-(4-fluorophenyl)-N-(1-(5-methyl-1,3,4-thiadiazol-2-yl)ethyl)-8-(morpholinosulfonyl)quinazolin-4-amine], the IC50 is under 316 nM.
For the compound `Cc1nnc(C(C)Nc2ncnc3c(OCC(F)F)cc(-c4ccc(F)cn4)cc23)s1` (single isomer, unassigned; enantiomer 2) [Example 7, Single enantiomer 2 of 8-(2,2-difluoroethoxy)-6-(5-fluoro-2-pyridyl)-N-[1-(5-methyl-1,3,4-thiadiazol-2-yl)ethyl]quinazolin-4-amine], the IC50 was 3160 to 31600 nM.
The value for `Cc1ccc(CNc2ncnc3c(OCC(F)F)cc(-c4ccc(F)cn4)cc23)nn1` [Example 4, 8-(2,2-difluoroethoxy)-6-(5-fluoropyridin-2-yl)-N-((6-methylpyridazin-3-yl)methyl)quinazolin-4-amine] was 316 to 3160 nM.
Consider `Cc1ccc([C@@H](C)Nc2ncnc3c(OCC(F)F)cc(-c4ccc(F)cn4)cc23)nn1` [Example 5, (R)-8-(2,2-difluoroethoxy)-6-(5-fluoropyridin-2-yl)-N-(1-(6-methylpyridazin-3-yl)ethyl)quinazolin-4-amine], for which the IC50 was 316 to 3160 nM.
With `Cc1ccc(-c2cc(OCC(F)F)c3ncnc(NCc4ccc(C)nn4)c3c2)nc1` [Example 8, 8-(2,2-Difluoroethoxy)-N-((6-methylpyridazin-3-yl)methyl)-6-(5-methylpyridin-2-yl) quinazolin-4-amine] the figure was under 316 nM.
The value for `Cc1ccc([C@@H](C)Nc2ncnc3c(S(=O)(=O)N4CCOCC4)cc(-c4ccc(F)cc4)cc23)nn1` [Example 10, (R)-6-(4-fluorophenyl)-N-(1-(6-methylpyridazin-3-yl)ethyl)-8-(morpholinosulfonyl)quinazolin-4-amine] was 316 to 3160 nM.
On to `C[C@@H](Nc1ncnc2c(S(=O)(=O)N3CCOCC3)cc(-c3ccc(F)cc3)cc12)c1cnc(C(F)(F)F)nc1` [Example 11], for which the IC50 was under 316 nM.
For `Cc1ccc([C@@H](C)Nc2ncnc3c(S(=O)(=O)N(C)C)cc(-c4ccc(F)cc4)cc23)nn1` [Example 13, (R)-6-(4-fluorophenyl)-N,N-dimethyl-4-((1-(6-methylpyridazin-3-yl)ethyl)amino)quinazoline-8-sulfonamide], the IC50 is under 316 nM.
As for `Cc1nnc(C(C)Nc2ncnc3c(S(=O)(=O)N(C)C)cc(-c4ccc(F)cc4)cc23)s1` (stereo not shown) [Example 14, 6-(4-fluorophenyl)-N,N-dimethyl-4-((1-(5-methyl-1,3,4-thiadiazol-2-yl)ethyl)amino)quinazoline-8-sulfonamide], the IC50 is under 316 nM.
With `Cc1nnc(C(C)Nc2ncnc3c(S(=O)(=O)N4CCC(F)(F)C4)cc(-c4ccc(F)cc4)cc23)s1` (stereo not shown) [Example 18, 8-((3,3-difluoropyrrolidin-1-yl)sulfonyl)-6-(4-fluorophenyl)-N-(1-(5-methyl-1,3,4-thiadiazol-2-yl)ethyl)quinazolin-4-amine] the figure was 316 to 3160 nM; with `Cc1ccc([C@@H](C)Nc2ncnc3c(S(=O)(=O)N4CCC(O)CC4)cc(-c4ccc(F)cc4)cc23)nn1` [Example 19, (R)-1-((6-(4-fluorophenyl)-4-((1-(6-methylpyridazin-3-yl)ethyl)amino)quinazolin-8-yl)sulfonyl)piperidin-4-ol], 316 to 3160 nM; with `Cc1nc([C@@H](C)Nc2ncnc3c(S(=O)(=O)N4CCC(O)CC4)cc(-c4ccc(F)cc4)cc23)no1` [Example 20, (R)-1-((6-(4-fluorophenyl)-4-((1-(5-methyl-1,2,4-oxadiazol-3-yl)ethyl)amino)quinazolin-8-yl)sulfonyl)piperidin-4-ol], under 316 nM.
Regarding `CNS(=O)(=O)c1cc(-c2ccc(F)cc2)cc2c(NC(C)c3nnc(C)s3)ncnc12` (stereo not shown) [Example 23], the IC50 is 316 to 3160 nM.
The value for `Cc1ccc([C@@H](C)Nc2ncnc3c(S(=O)(=O)N4CCNCC4)cc(-c4ccc(F)cc4)cc23)nn1` [Example 24, (R)-6-(4-fluorophenyl)-N-(1-(6-methylpyridazin-3-yl)ethyl)-8-(piperazin-1-ylsulfonyl)quinazolin-4-amine] was 316 to 3160 nM; that for `Cc1nc([C@@H](C)Nc2ncnc3c(S(=O)(=O)N4CCNCC4)cc(-c4ccc(F)cc4)cc23)no1` [Example 25, (R)-6-(4-fluorophenyl)-N-(1-(5-methyl-1,2,4-oxadiazol-3-yl)ethyl)-8-(piperazin-1-ylsulfonyl)quinazolin-4-amine] was 316 to 3160 nM.
The value for `CSc1cc(-c2ccc(F)cc2)cc2c(N[C@H](C)c3ccc(C)nn3)ncnc12` [Example 26, (R)-6-(4-fluorophenyl)-N-(1-(6-methylpyridazin-3-yl)ethyl)-8-(methylthio)quinazolin-4-amine] was 316 to 3160 nM.
The value for `Cc1ccc([C@@H](C)Nc2ncnc3c(SC4COC4)cc(-c4ccc(F)cc4)cc23)nn1` [Example 28, (R)-6-(4-fluorophenyl)-N-(1-(6-methylpyridazin-3-yl)ethyl)-8-(oxetan-3-ylthio)quinazolin-4-amine] was 3160 to 31600 nM; that for `Cc1ccc([C@@H](C)Nc2ncnc3c([S+]([O-])C4COC4)cc(-c4ccc(F)cc4)cc23)nn1` (stereo partly drawn) [Example 29, 6-(4-fluorophenyl)-N-((R)-1-(6-methylpyridazin-3-yl)ethyl)-8-(oxetan-3-ylsulfinyl)quinazolin-4-amine] was 3160 to 31600 nM.
As for `CC(=O)N1CC[C@@H](Oc2cc(-c3ccc(F)cc3)cc3c(N[C@H](C)c4cnc(C(F)(F)F)nc4)ncnc23)C1` [Example 30], the IC50 was 316 to 3160 nM.
The value for `CC(=O)N1CC[C@H](Oc2cc(-c3ccc(F)cc3)cc3c(N[C@H](C)c4cnc(C(F)(F)F)nc4)ncnc23)C1` [Example 31] was 316 to 3160 nM; that for `CC(=O)N[C@H]1CC[C@@H](Oc2cc(-c3ccc(F)cc3)cc3c(N[C@H](C)c4cnc(C(F)(F)F)nc4)ncnc23)CC1` [Example 32, N-((1S,4s)-4-((6-(4-fluorophenyl)-4-(((R)-1-(2-(trifluoromethyl)pyrimidin-5-yl)ethyl)amino)quinazolin-8-yl)oxy)cyclohexyl)acetamide] was 316 to 3160 nM; that for `C[C@@H](Nc1ncnc2c(OC3CCN(CC(F)(F)F)C3)cc(-c3ccc(F)cc3)cc12)c1cnc(C(F)(F)F)nc1` (stereo partly drawn) [Example 33, 6-(4-fluorophenyl)-8-((1-(2,2,2-trifluoroethyl)pyrrolidin-3-yl)oxy)-N-((R)-1-(2-(trifluoromethyl)pyrimidin-5-yl)ethyl)quinazolin-4-amine] was 316 to 3160 nM.
With `CC(=O)N1CCC(Oc2cc(-c3ccc(F)cc3)cc3c(N[C@H](C)c4cnc(C(F)(F)F)nc4)ncnc23)CC1` [Example 35, (R)-1-(4-((6-(4-fluorophenyl)-4-((1-(2-(trifluoromethyl)pyrimidin-5-yl)ethyl)amino)quinazolin-8-yl)oxy)piperidin-1-yl)ethan-1-one], the IC50 is 316 to 3160 nM.
With `C[C@@H](Nc1ncnc2c(OC3CCN(CC(F)(F)F)CC3)cc(-c3ccc(F)cc3)cc12)c1cnc(C(F)(F)F)nc1` [Example 36] the figure was 316 to 3160 nM; with `C[C@@H](Nc1ncnc2c(OCC3(O)COC3)cc(-c3ccc(F)cc3)cc12)c1cnc(C(F)(F)F)nc1` [Example 37, (R)-3-(((6-(4-fluorophenyl)-4-((1-(2-(trifluoromethyl)pyrimidin-5-yl)ethyl)amino)quinazolin-8-yl)oxy)methyl)oxetan-3-ol], under 316 nM.

The values above are taken from patent US20240025880A1 (CHIESI FARMACEUTICI S.P.A., priority 2020, published 2024).
